Reference: patent publication US8241674B2, “Methods and compositions for heavy metal detoxification” (priority 2007, dated 2012)
Like-named read-outs stand apart in the source and are kept apart here.

Tests used:
[1] = tested on: NQO1 enzyme; assay: NADPH quinone oxido reductase (NQO1) activity assay in RL-34 cell lysate after treatment; details: RL-34 cells, 2 days, ratio of treated over vehicle control
[2] = tested on: phase II enzymes (GSTA1 and NQO1)
[3] = tested on: heme oxygenase (HMOX1)
[4] = tested on: heme oxygenase (HO-1) luciferase reporter; assay: Heme oxygenase (HO-1) luciferase reporter in HepG2 cells; details: HepG2 cell line; for Fold Induction of heme oxygenase luciferase activity: 24 hours, ratio over vehicle control, concentration not given; for expression of heme oxygenase promoter activity (in words): thirty percent induction over DMSO control considered active
[5] = tested on: GST enzyme; assay: GST activity assay in RL-34 cell lysate after treatment; format: cell-based, rat; details: RL-34 cells, 2 days, ratio over DMSO control
[6] = tested on: metallothionein (MT 1, 2)
[7] = tested on: Nrf-2; assay: Western blot of Nrf-2 in the nuclear fraction of HepG2 cells; format: cell-based, human; details: 4 hours, FIGS. 3 and 4
Method: Western blot detection—The HepG2 cell line was cultured as above and test compounds were added for four hours, after which the cells were lysed and the nuclear fraction was isolated (Dignam, J. D., R. M. Lebovitz, and R. G. Roeder, Nucleic Acids Res, 11(5): 1475-89, 1983). Total protein concentration was determined using the Bicinchoninic Acid Kit (Sigma). Total cell lysates (60 μg total protein) were electrophoresed and detection of Nrf-2 was performed using primary antibody incubation overnight at 4° C. (Santa Cruz Biotechnology, Inc, Santa Cruz, Calif.). Secondary antibody linked to horseradish peroxidase was incubated for one h (GE Healthcare, Piscataway, N.J.), after which proteins were visualized using the enhanced chemiluminescence (ECL) system. Densitometry was performed using Kodak Molecular Imaging Software v.4.0 (Eastman Kodak Company, Rochester, N.Y.) measuring the net intensity of the band.

[8] = HepG2 cells, 8 hours, 25 μg/ml, average of GSTA1 and NQO1

## C=C1CC[C@@H]2[C@](C)(CO)[C@H](O)CC[C@@]2(C)[C@@H]1C/C=C1/C(=O)OC[C@H]1O [Andrographis, 3-(2-(Decahydro-6-hydroxy-5-(hydroxymethyl)-5,8a-dimethyl-2-methylenenaphthyl)ethylidene)dihydro-4-hydroxyfuran-2(3H)-one]
[1]; 25 ug/mL
  Induction of NQO1 activity: 4.5
[2]; [8]
  Phase II (ave) Ratio to DMSO: 2.29
[3]; HepG2 cells, 8 hours, 25 μg/ml
  HMOX1 Ratio to DMSO: 2.43
[4]
  Fold Induction of heme oxygenase luciferase activity: 4.4 fold
[5]; 25 ug/mL
  Fold Induction of GST activity: 1.4 fold
[6]; HepG2 cells, 8 hours, 25 μg/ml
  MT 1,2 (ave) Ratio to DMSO: 0.87

## COc1ccc2cc3[n+](cc2c1OC)CCc1cc2c(cc1-3)OCO2 [Berberine]
[1]; 20 ug/mL
  Induction of NQO1 activity: 1.4
[5]; 20 ug/mL
  Fold Induction of GST activity: 1.0 fold

## O=c1c(-c2ccc(O)cc2)coc2cc(O)cc(O)c12 [Bonistein]
[1]; 20 ug/mL
  Induction of NQO1 activity: 1.2
[5]; 20 ug/mL
  Fold Induction of GST activity: 1.0 fold

## [Cl][Cd][Cl] [CdCl2, reference compound]
[2]; HepG2 cells, 8 hours, 40 uM, average of GSTA1 and NQO1
  Phase II (ave) Ratio to DMSO: 0.94
[2]; HepG2 cells, controls
  phase II gene induction (in words): unable to increase
[3]; HepG2 cells, 8 hours, 40 uM
  HMOX1 Ratio to DMSO: 21.23
[3]; HepG2 cells, controls
  HMOX1 gene induction (in words): induce
[6]; HepG2 cells, 8 hours, 40 uM
  MT 1,2 (ave) Ratio to DMSO: 83.31
[6]; HepG2 cells, controls
  MT gene induction (in words): induce

## COc1cc(C=CC(=O)CC(=O)C=Cc2ccc(O)c(OC)c2)ccc1O [Curcumin, 1,7-Bis(4-hydroxy-3-methoxyphenyl)hepta-1,6-diene-3,5-dione]
[1]; 5 ug/mL
  Induction of NQO1 activity: 4.6
[2]; HepG2 cells, 8 hours, 5 μg/ml, average of GSTA1 and NQO1
  Phase II (ave) Ratio to DMSO: 1.15
[3]; HepG2 cells, 8 hours, 5 μg/ml
  HMOX1 Ratio to DMSO: 2.09
[4]
  Fold Induction of heme oxygenase luciferase activity: 6.1 fold
  expression of heme oxygenase promoter activity (in words): induced
[5]; 5 ug/mL
  Fold Induction of GST activity: 1.0 fold
[6]; HepG2 cells, 8 hours, 5 μg/ml
  MT 1,2 (ave) Ratio to DMSO: 0.90

## CC/C=C\C/C=C\C/C=C\C/C=C\C/C=C\C/C=C\CCC(=O)O [DHA]
[1]; 20 ug/mL
  Induction of NQO1 activity: 0.9
[5]; 20 ug/mL
  Fold Induction of GST activity: 1.0 fold

## C[C@]12CC[C@H](O)CC1=CC[C@@H]1[C@@H]2CC[C@]2(C)C(=O)CC[C@@H]12 [DHEA]
[1]; 20 ug/mL
  Induction of NQO1 activity: 1.1

## c1ccc2c(Cc3c[nH]c4ccccc34)c[nH]c2c1 [DIM]
[1]; 25 ug/mL
  Induction of NQO1 activity: 1.5

## CC1(C)C=Cc2c(ccc3c2OC[C@@H](c2ccc(O)cc2O)C3)O1 [Glabridin]
[1]; 20 ug/mL
  Induction of NQO1 activity: 1.0
[5]; 20 ug/mL
  Fold Induction of GST activity: 1.0 fold

## N[C@H]1C(O)O[C@H](CO)[C@@H](O)[C@@H]1O (stereo partly drawn) [Glucosamine]
[1]; 20 ug/mL
  Induction of NQO1 activity: 1.0
[5]; 20 ug/mL
  Fold Induction of GST activity: 1.1 fold

## OCc1c[nH]c2ccccc12 [I3C]
[1]; 25 ug/mL
  Induction of NQO1 activity: 2.4
[5]; 25 ug/mL
  Fold Induction of GST activity: 1.1 fold

## CC(C)Oc1ccc2c(=O)c(-c3ccccc3)coc2c1 [Ipriflavone]
[1]; 20 ug/mL
  Induction of NQO1 activity: 0.8
[5]; 20 ug/mL
  Fold Induction of GST activity: 1.1 fold

## O=C([O-])CC(O)(CC(=O)[O-])C(=O)[O-].[K+].[K+].[K+] [K-Citrate]
[1]; 20 ug/mL
  Induction of NQO1 activity: 0.9
[5]; 20 ug/mL
  Fold Induction of GST activity: 1.1 fold

## CC1(C)CC[C@]2(C(=O)O)CC[C@]3(C)C(=CC[C@@H]4[C@@]5(C)CC[C@H](O)C(C)(C)[C@@H]5CC[C@]43C)[C@@H]2C1 [Oleanolic acid]
[1]; 25 ug/mL
  Induction of NQO1 activity: 1.5
[2]; [8]
  Phase II (ave) Ratio to DMSO: 0.91
[3]; HepG2 cells, 8 hours, 25 μg/ml
  HMOX1 Ratio to DMSO: 1.88
[4]
  Fold Induction of heme oxygenase luciferase activity: 2.7 fold
  expression of heme oxygenase promoter activity (in words): induced
[5]; 25 ug/mL
  Fold Induction of GST activity: 1.0 fold
[6]; HepG2 cells, 8 hours, 25 μg/ml
  MT 1,2 (ave) Ratio to DMSO: 2.39

## C/C=C1/[C@H](O[C@@H]2O[C@H](CO)[C@@H](O)[C@H](O)[C@H]2O)OC=C(C(=O)OC)[C@H]1CC(=O)OCCc1ccc(O)c(O)c1 [Oleuropein]
[1]; 20 ug/mL
  Induction of NQO1 activity: 1.0
[5]; 20 ug/mL
  Fold Induction of GST activity: 1.0 fold

## O=C(CCc1ccc(O)cc1)c1c(O)cc(O)cc1O[C@@H]1O[C@H](CO)[C@@H](O)[C@H](O)[C@H]1O [Phloridzin]
[1]; 20 ug/mL
  Induction of NQO1 activity: 1.0
[5]; 20 ug/mL
  Fold Induction of GST activity: 1.0 fold

## O=c1c(O)c(-c2ccc(O)c(O)c2)oc2cc(O)cc(O)c12 [Quercitin]
[1]; 20 ug/mL
  Induction of NQO1 activity: 1.4
[5]; 20 ug/mL
  Fold Induction of GST activity: 1.0 fold

## Oc1ccc(C=Cc2cc(O)cc(O)c2)cc1 [Resveratrol]
[1]; 20 ug/mL
  Induction of NQO1 activity: 2.2

## C[C@@H]1O[C@@H](OC[C@H]2O[C@@H](Oc3c(-c4ccc(O)c(O)c4)oc4cc(O)cc(O)c4c3=O)[C@H](O)[C@@H](O)[C@@H]2O)[C@H](O)[C@H](O)[C@H]1O [Rutin]
[1]; 20 ug/mL
  Induction of NQO1 activity: 0.9
[5]; 20 ug/mL
  Fold Induction of GST activity: 1.0 fold

## C[S+]([O-])CCCCN=C=S (stereo not drawn) [Sulforaphane, reference compound]
[1]; 3 ug/mL
  Induction of NQO1 activity: 3.7
[7]
  Nrf-2 nuclear translocation: dramatic increase
[2]
  Phase II (ave) Ratio to DMSO: 1.84
  phase II gene induction (in words): increased
[3]
  HMOX1 Ratio to DMSO: 8.82
  HMOX1 gene induction (in words): increased
[4]
  Fold Induction of heme oxygenase luciferase activity: 4.2 fold
  expression of heme oxygenase promoter activity (in words): induced
[5]; 3 ug/mL
  Fold Induction of GST activity: 1.8 fold
[6]
  MT 1,2 (ave) Ratio to DMSO: 0.67
  MT gene induction (in words): but not MT

## O=c1oc2c(O)c3oc(=O)c4c5c(oc(=O)c6cc(O)c(O)c(O)c65)c(O)c5oc(=O)c(c2c2c(O)c(O)c(O)cc12)c3c54 [Terminalin]
[1]; 25 ug/mL
  Induction of NQO1 activity: 1.0
[4]
  Fold Induction of heme oxygenase luciferase activity: 1.7 fold
  expression of heme oxygenase promoter activity (in words): induced
[5]; 25 ug/mL
  Fold Induction of GST activity: 1.0 fold

## O=C1O[C@H]([C@@H](O)CO)C(O)=C1O [Vitamin C]
[1]; 20 ug/mL
  Induction of NQO1 activity: 0.9
[5]; 20 ug/mL
  Fold Induction of GST activity: 1.1 fold

## CC(C)=CCC/C(C)=C/CC/C(C)=C/CC/C(C)=C/CC1=C(C)C(=O)c2ccccc2C1=O [Vitamin K2]
[1]; 20 ug/mL
  Induction of NQO1 activity: 0.9

## COc1cc(O)c(CC=C(C)C)c(O)c1C(=O)/C=C/c1ccc(O)cc1 [Xanthohumol]
[1]; 1 ug/mL
  Induction of NQO1 activity: 3.7
[2]; HepG2 cells, 8 hours, 1 μg/ml, average of GSTA1 and NQO1
  Phase II (ave) Ratio to DMSO: 1.02
[3]; HepG2 cells, 8 hours, 1 μg/ml
  HMOX1 Ratio to DMSO: 1.11
[4]
  Fold Induction of heme oxygenase luciferase activity: 5.4 fold
  expression of heme oxygenase promoter activity (in words): induced
[5]; 1 ug/mL
  Fold Induction of GST activity: 1.4 fold
[6]; HepG2 cells, 8 hours, 1 μg/ml
  MT 1,2 (ave) Ratio to DMSO: 0.90

## [Cl-].[Cl-].[Zn+2] [ZnCl2]
[2]; HepG2 cells, 8 hours, 10 μg/ml, average of GSTA1 and NQO1
  Phase II (ave) Ratio to DMSO: 0.94
[3]; HepG2 cells, 8 hours, 10 μg/ml
  HMOX1 Ratio to DMSO: 0.97
[4]
  Fold Induction of heme oxygenase luciferase activity: 1.5 fold
  expression of heme oxygenase promoter activity (in words): induced
[6]; HepG2 cells, 8 hours, 10 μg/ml
  MT 1,2 (ave) Ratio to DMSO: 12.43

## O=C(/C=C/c1ccc(O)c(O)c1)O[C@@H]1C[C@](O)(C(=O)O)C[C@@H](O)[C@H]1O [chlorogenic acid]
[1]; 25 ug/mL
  Induction of NQO1 activity: 1.2
[5]; 25 ug/mL
  Fold Induction of GST activity: 1.1 fold

## Hyaluronic acid
[1]; 20 ug/mL
  Induction of NQO1 activity: 0.9

## Inulin
[1]; 20 ug/mL
  Induction of NQO1 activity: 0.9
